Reference: US12310945B2, “Cyclohexylglycine derivatives as selective cytotoxic agents” (Merck Sharp & Dohme LLC, priority 2022, dated 2025)

System: PBMCs infected with VSV-G pseudotyped HIV virus stock (VSV-G/pNLG1-P2A-AEnv)
Experiment: cells
Assay type: cell-based
Details: Human immunodeficiency virus 1, PBMC, read-out: TACK EC50

Row | SMILES | EC50 [nM]
1 | N[C@H](C(=O)N1Cc2ccccc2C1)[C@H]1CC[C@H](N2CCCC2)CC1 [Example 1, (2S)-2-amino-1-(1,3-dihydroisoindol-2-yl)-2-[(1R,4S)-4-(pyrrolidin-1-yl)cyclohexyl]ethanone] | 211
2 | N#C[C@@H]1C[C@H](F)CN1C(=O)[C@@H](N)C1CCCCC1 [Example 4] | 314
3 | C#CCOCCO[C@H]1CCN(C2CCC([C@H](N)C(=O)N3Cc4ccccc4C3)CC2)C1 (stereo partly drawn) [Example 5] | 533
4 | C#CCO[C@H]1CCN(C2CCC([C@H](N)C(=O)N3Cc4ccccc4C3)CC2)C1 (stereo partly drawn) [Example 6] | 230
5 | N[C@H](C(=O)N1Cc2ccccc2C1)[C@H]1CC[C@@H](O)CC1 [Example 2] | 6420
6 | N[C@H](C(=O)N1Cc2ccccc2C1)C1CCCCC1 [Example 3] | 1410
